# Data published in US20030224983A1, “Stimulation of beta cell proliferation” (priority 1998, published 2003).
# Legend:
# [1] = tested on: beta cells (insulin positive cells in pancreatic islet cells from newborn rats); assay: beta cell proliferation in vitro, BrdU incorporation in insulin positive islet cells; format: cell-based, rat; details: for number of labelled beta cells: then 10 μM BrdU for 90 min, absence of hormones 0.6%
# Text: Diabetes is characterized by insufficiency of the pancreatic beta cells to maintain normoglycemia. In type 1 diabetes (IDDM) this is due to destruction of the beta cells by an autoimmune process whereas in type 2 diabetes (NIDDM) it is due to a combination of beta cell deficiency and peripheral insulin resistance. […] However in diabetic patients the number of beta cells is reduced and it is therefore pertinent not only to improve the function of the beta cells by therapeutical means but also to increase the number of beta cells. […] In our efforts to identify beta cell growth factors we discovered that GLP-1 indeed could stimulate beta cell proliferation in vitro. The proliferation was measured as incorporation of the thymidine analogue 5-bromo-2-deoxyuridine into DNA in insulin positive cells in pancreatic islet cells from newborn rats. […] This may have important implication for the treatment and/or prevention of diabetes.
# The protocol was a slight modification of the procedure described by Billestrup and Nielsen (Billestrup N, Nielsen J H: The stimulatory effect of growth hormone, prolactin, and placental lactogen on beta cell proliferation is not mediated by insulin-like growth factor-I. Endocrinology 1991; 129:883-888.). Pancreatic islets were isolated from newborn rats by the collagenase method and cultured for 2-5 days before use. 2000 islets were transfered to 15 ml plastic tubes and washed once with Ca/Mg-free Hank's balanced salt solution. 500 μl cold trypsin solution (0.05% trypsin, 0.53 mM EDTA in Ca/Mg-free Hank's solution). The islets were dispersed by aspiration with a pipette. 5 ml culture medium RPMI 1640 with 2% human serum was added. 75,000 islet cells were then placed in tissue culture flasks previously coated with ECL cell attachment matrix (Upstate Biotechnology) with 2 ml culture medium with 1 μg/ml human growth hormone (hGH) (Norditropin, Novo Nordisk). After 7 days in culture at 37C the medium was replaced with culture medium without hGH or with addition of 100 nM GLP-1, 5 μM Arg^34, Lys^26(N-ε-(γ-Glu(N-α-hexadecanoyl)))-GLP-1(7-37) or 200 ng/ml hGH. After 2 days in culture 10 μM 5-bromo-2-deoxyuridine (BrdU) was added and after 90 min the medium was removed and the cells fixed in 1% paraformaldehyde in 0.1 M phosphate buffer. The cells were then stained with antibodies to BrdU and insulin as described (Billestrup and Nielsen, 1991). The number of labelled beta cells in the absence of hormones was 0.6% and in the presence of hGH 3.5%. In the presence of GLP-1 the number was 1.7% and in the presence of Arg^34, Lys^26(N-ε-(γ-Glu(N-α-hexadecanoyl)))-GLP-1(7-37) 1.4%.
# [2] = tested on: beta-cells of ZDF rats; assay: relative mass of islet beta-cells, point counting stereologic techniques; format: in vivo, rat
# Text: (§1) The rat experiment described in example 2 were examined for effects of Arg^34, Lys^26(N-ε-(γ-Glu(N-α-hexadecanoyl)))-GLP-1(7-37) (named GLP-1 in FIG. 3 and 4) on beta-cell growth and neogenesis.
# Neighbor sections were stained for insulin and the combination of glucagon-somatostatin-pancreatic polypeptide for the measurement of the relative mass of islet beta-cells and nonbeta-cells. The beta-cells were stained for insulin as described above. The nonbeta-cells were stained with a mixture of monoclonal mouse anti-glucagon+rabbit anti-somatostatin+rabbit anti-pancreatic polypeptide, detected by biotinylated swine anti-multible Ig's, avidin peroxidase, and developed with DAB and CuSO4 to give a dark brown stain. The volume fractions of beta- and nonbeta-cells were estimated by point counting stereologic techniques.
# [3] = tested on: male Zucker Diabetic Fatty fa/fa (ZDF) rat; assay: oral glucose tolerance test in ZDF rats; format: in vivo; details: group C, 150 μg/kg bi-daily, after 36 days; 11-hour fast, 1 g/kg glucose by oral gavage; total AUC, p<0.0002 by ANOVA
# Text: (§2) The male Zucker Diabetic Fatty fa/fa (ZDF) rat is a model of Type 2 diabetes. The rats are insulin resistant but normoglycemic from birth and they develop diabetes from about week 7 to week 10 of age. During the transitional period, the animals go through a state of impaired glucose tolerance. Although the animals are hyperinsulinemic before diabetes onset and during the early stages of diabetes, they later lose glucose-stimulated insulin secretion and finally become almost completely insulinopenic.
# (§3) We have studied the effects of Arg^34, Lys^26(N-ε-(γ-Glu(N-α-hexadecanoyl)))-GLP-1(7-37) therapy during a period of time when the animals would normally progress from having impaired glucose tolerance to having overt Type 2 diabetes. Three groups of male ZDF rats (Genetic Models Inc, Indianapolis, Ind., U.S.A.) were studied and dosed subcutaneously bi-daily with either vehicle (group A), 30 (group B) or 150 μg/kg (group C) of Arg^34, Lys^26(N-ε-(γ-Glu(N-α-hexadecanoyl)))-GLP-1(7-37), n=6 per group. Animals were between 7 and 8 weeks old when dosing was initiated, and fed glucose levels were not different between the groups before dosing began. […] After 36 days of dosing, an oral glucose tolerance test was performed in the animals after an 11-hour fast. One g/kg of glucose was administered by oral gavage and subsequent measurements of blood glucose and plasma insulin were made.
# [4] = tested on: beta-cells of ZDF rats; assay: beta-cell proliferation rate in vivo, BrDU and insulin double staining of pancreas sections; set-up: species or system rat; details: 30 and 150 μg/kg bi-daily, 100 mg BrDU/kg i.p. six hours before sacrifice
# Procedure: as §1
# Bromodeoxyuridine (BrDU) is incorporated in newly synthesized DNA and thus will label replicating cells. Six hours before sacrifice the rats were given an injection of 100 mg BrDU/kg intraperitoneally. After sacrifice the pancreata were fixed in 4% PFA, dehydrated, embedded in paraffin, and […] sections double stained for BrDU and insulin for the measurement of beta-cell proliferation rate.
# Insulin was stained with guinea pig anti-insulin, peroxidase-coupled rabbit anti-guinea pig Ig, and developed with AEC to give a red stain. BrDU was stained by monoclonal mouse anti-BrDU, biotinylated goat anti-mouse Ig, avidin peroxidase, and developed with DAB and CuSO4 to give a dark brown stain. BrDU stained nuclei of cells with insulin stained cytoplasm was examined in more than 1500 cells per section. The examination of the sections were carried out with the origin of the sections blinded to the observer.
# [5] = tested on: male Zucker Diabetic Fatty fa/fa (ZDF) rat; assay: blood glucose during a normal 24-hour feeding schedule in ZDF rats; format: in vivo
# Text: as §2, §3
substance,measurement,setting,value
"hGH: human growth hormone (hGH) (Norditropin, Novo Nordisk)",number of labelled beta cells,"[1]; 200 ng/ml hGH, 2 days in culture",3.5%
GLP-1: The term GLP-1 means GLP-1(7-37) or GLP-1(7-36) amide [reference compound],number of labelled beta cells,"[1]; 100 nM GLP-1, 2 days in culture",1.7%
same,number of labelled beta cells (in words),"[1]; BrdU incorporation into DNA in insulin positive cells, newborn rat islet cells",increase the number of labelled beta cells
"Arg^34, Lys^26(N-ε-(γ-Glu(N-α-hexadecanoyl)))-GLP-1(7-37)",number of labelled beta cells,"[1]; 5 μM, 2 days in culture",1.4%
same,"beta-cell fraction of the total pancreas, compared to vehicle treated rats",[2]; 30 ng/g for 6 weeks,significantly higher
same,beta-cell fraction of the total pancreas,"[2]; 150 ng/g, compared to 30 ng/g",no further increase
same,"glycemic level in oral glucose tolerance test, compared to groups A and B",[3],significantly lower
same,fraction of beta-cells that had incorporated BrDU,[4],dose dependent increase
same,blood glucose levels during a normal 24-hour feeding schedule,"[5]; group B (low dose), 30 μg/kg subcutaneously bi-daily, after 10 days of dosing",hyperglycemic
same,"blood glucose levels during a normal 24-hour feeding schedule, compared to initial measurements","[5]; group C, 150 μg/kg subcutaneously bi-daily, after 10 days of dosing",unchanged compared to the initial measurements
same,"blood glucose levels during a normal 24-hour feeding schedule, compared to vehicle- and low-dose-treated animals","[5]; group C, 150 μg/kg subcutaneously bi-daily, after 10 days, total area under the curve, p<0.0002 by ANOVA",significantly lower
